Test results published in patent US4468511A, “C-20- And C-23-Modified macrolide derivatives” (Eli Lilly and Company, priority 1983, dated 1984).
In brackets after ≈: the same amount, converted by molar mass. Where two headings read alike, the source gives them in different places.

How the values were obtained:
[1] = test system: Staphylococcus aureus V41; test: MIC, standard agar-dilution assay; assay type: cell-based; conditions: Staphylococcus aureus, V41
Method: (§1) Certain of the derivatives are active against some gram-negative bacteria, such as Pasteurella species. The MIC's in Table II were determined by standard agar-dilution assays. The MIC's in Table III were obtained using a conventional broth-dilution microtiter test.

[2] = test system: Streptococcus pyogenes C203; test: MIC, standard agar-dilution assay; assay type: cell-based
Method: as §1

[3] = test system: Klebsiella pneumoniae KAE; test: MIC, standard agar-dilution assay; assay type: cell-based; conditions: agar-dilution; Klebsiella pneumoniae KAE; read-out: MIC
Method: as §1

[4] = test system: Streptococcus Group D X66; test: MIC, standard agar-dilution assay; assay type: cell-based
Method: as §1

[5] = test system: Escherichia coli TEM; test: MIC, standard agar-dilution assay; assay type: cell-based; conditions: agar-dilution; Escherichia coli TEM; read-out: MIC
Method: as §1

[6] = test system: Staphylococcus aureus X1.1; test: MIC, standard agar-dilution assay; assay type: cell-based
Method: as §1

[7] = test system: Klebsiella pneumoniae X26; test: MIC, standard agar-dilution assay; assay type: cell-based
Method: as §1

[8] = test system: Streptococcus pyogenes 9960; test: MIC, standard agar-dilution assay; assay type: cell-based
Method: as §1

[9] = test system: Escherichia coli EC14; test: MIC, standard agar-dilution assay; assay type: cell-based; conditions: agar-dilution; Escherichia coli EC14; read-out: MIC
Method: as §1

[10] = test system: Streptococcus pneumoniae Park I; test: MIC, standard agar-dilution assay; assay type: cell-based; conditions: Streptococcus pneumoniae
Method: as §1

[11] = test system: Streptococcus sp. 80; test: MIC, conventional broth-dilution microtiter test; assay type: cell-based; conditions: broth-dilution microtiter; Streptococcus sp. 80; read-out: MIC
Method: as §1

[12] = test system: Mycoplasma gallisepticum; test: MIC, conventional broth-dilution microtiter test; assay type: cell-based; conditions: Mycoplasmoides gallisepticum; broth-dilution microtiter; Mycoplasma gallisepticum; read-out: MIC
Method: as §1

[13] = test system: Mycoplasma gallisepticum 41313; test: MIC, conventional broth-dilution microtiter test; assay type: cell-based; conditions: Mycoplasmoides gallisepticum; broth-dilution microtiter; Mycoplasma gallisepticum 41313, Resistant strain; read-out: MIC
Method: as §1

[14] = test system: Mycoplasma synoviae; test: MIC, conventional broth-dilution microtiter test; assay type: cell-based; conditions: Mycoplasmopsis synoviae; broth-dilution microtiter; Mycoplasma synoviae; read-out: MIC
Method: as §1

[15] = test system: Pasteurella multocida 17E; test: MIC, conventional broth-dilution microtiter test; assay type: cell-based; conditions: broth-dilution microtiter; Pasteurella multocida 17E, Bovine isolate; read-out: MIC
Method: as §1

[16] = test system: Staphylococcus aureus; test: MIC, conventional broth-dilution microtiter test; assay type: cell-based; conditions: broth-dilution microtiter, read-out: MIC
Method: as §1

[17] = test system: Mycoplasma gallisepticum 34159; test: MIC, conventional broth-dilution microtiter test; assay type: cell-based; conditions: Mycoplasmoides gallisepticum; broth-dilution microtiter; Mycoplasma gallisepticum 34159, Resistant strain; read-out: MIC
Method: as §1

[18] = test system: Pasteurella multocida 22A; test: MIC, conventional broth-dilution microtiter test; assay type: cell-based; conditions: broth-dilution microtiter; Pasteurella multocida 22A; read-out: MIC
Method: as §1

[19] = test system: Pasteurella hemolytica 41D; test: MIC, conventional broth-dilution microtiter test; assay type: cell-based; conditions: broth-dilution microtiter; Pasteurella hemolytica 41D; read-out: MIC
Method: as §1

[20] = test system: Pasteurella multocida 40G; test: MIC, conventional broth-dilution microtiter test; assay type: cell-based; conditions: broth-dilution microtiter; Pasteurella multocida 40G; read-out: MIC
Method: as §1

[21] = test system: Pasteurella hemolytica 22C; test: MIC, conventional broth-dilution microtiter test; assay type: cell-based; conditions: broth-dilution microtiter; Pasteurella hemolytica 22C; read-out: MIC
Method: as §1

[22] = test system: Mycoplasma hyorhinis; test: MIC, conventional broth-dilution microtiter test; assay type: cell-based; conditions: broth-dilution microtiter; Mycoplasma hyorhinis; read-out: MIC
Method: as §1

[23] = test system: Pasteurella hemolytica 23C; test: MIC, conventional broth-dilution microtiter test; assay type: cell-based; conditions: broth-dilution microtiter; Pasteurella hemolytica 23C; read-out: MIC
Method: as §1

[24] = test system: Pasteurella multocida 60A; test: MIC, conventional broth-dilution microtiter test; assay type: cell-based; conditions: broth-dilution microtiter; Pasteurella multocida 60A, Avian isolate; read-out: MIC
Method: as §1

[25] = test system: Pasteurella multocida 68C; test: MIC, conventional broth-dilution microtiter test; assay type: cell-based; conditions: broth-dilution microtiter; Pasteurella multocida 68C; read-out: MIC
Method: as §1

[26] = test system: Haemophilus influenzae 76; test: MIC, standard agar-dilution assay; assay type: cell-based; conditions: Haemophilus influenzae, 76
Method: (§2) The MIC's in Table II were determined by standard agar-dilution assays. The MIC's in Table III were obtained using a conventional broth-dilution microtiter test.

[27] = test system: Haemophilus influenzae C.L.; test: MIC, standard agar-dilution assay; assay type: cell-based
Method: as §2

[28] = test system: Staphylococcus epidermidis EPI2; test: MIC, standard agar-dilution assay; assay type: cell-based
Method: as §2

[29] = test system: Staphylococcus aureus X400; test: MIC, standard agar-dilution assay; assay type: cell-based
Method: as §2

[30] = test system: Staphylococcus epidermidis EPI1; test: microbe, parasite or virus in culture; assay type: cell-based; conditions: agar-dilution; Staphylococcus epidermidis EPI1; read-out: MIC
Method: as §2

[31] = test system: Staphylococcus aureus S13E; test: microbe, parasite or virus in culture; assay type: cell-based
Method: as §2

[32] = test system: Streptococcus pyogenes C203; test: Protection of mice experimentally infected with S. pyogenes C203; assay type: in vivo; conditions: mg/kg × 2, doses given 1 and 4 hours postinfection
Method: Some of the derivatives of this invention have shown in vivo antimicrobial activity against experimentally-induced infections in laboratory animals. When two doses of test compound were administered to mice experimentally infected with S. pyogenes C203, the activity observed was measured as an ED50 value [effective dose in mg/kg to protect 50% of the test animals: see Warren Wick, et al., J. Bacteriol. 81, 233-235 (1961)].

[33] = agar-dilution, Streptococcus Group D X66, read-out: MIC
[34] = agar-dilution, Klebsiella pneumoniae X26, read-out: MIC
[35] = agar-dilution, Streptococcus 9960, read-out: MIC
[36] = agar-dilution, Haemophilus influenzae C.L., Ampicillin-sensitive strain, read-out: MIC
[37] = Staphylococcus epidermidis, EPI2
[38] = agar-dilution, Streptococcus pyogenes C203, read-out: MIC
[39] = agar-dilution, Staphylococcus aureus X1.1, read-out: MIC
[40] = agar-dilution, Staphylococcus aureus X400, Methicillin-resistant strain, read-out: MIC

SMILES	MIC [1]	MIC [3]	MIC [5]	MIC [9]	MIC [10]	MIC [11]	MIC [12]	MIC [14]	MIC [15]	MIC [16]	MIC [17]	MIC [18]	MIC [19]	MIC [20]	MIC [21]	MIC [22]	MIC [23]	MIC [24]	MIC [25]	MIC [26]	other results
CCC1OC(=O)CC(O)C(C)C(OC2OC(C)C(O)C(N(C)C)C2O)C(CCN(C)C)CC(C)C(=O)C=CC(C)=CC1CO (stereo not shown) [Compound 2, 20-N-Dimethylamino-20-deoxy-20-dihydro-OMT]	32 µg/mL (≈ 51.1 µM)	> 128 µg/mL	128 µg/mL (≈ 204 µM)	> 128 µg/mL	32 µg/mL (≈ 51.1 µM)	25 µg/mL (≈ 39.9 µM)	50 µg/mL (≈ 79.8 µM)	> 50 µg/mL	25 µg/mL (≈ 39.9 µM)	50 µg/mL (≈ 79.8 µM)	> 50 µg/mL	25 µg/mL (≈ 39.9 µM)	50 µg/mL (≈ 79.8 µM)	50 µg/mL (≈ 79.8 µM)	50 µg/mL (≈ 79.8 µM)	50 µg/mL (≈ 79.8 µM)	50 µg/mL (≈ 79.8 µM)	25 µg/mL (≈ 39.9 µM)	12.5 µg/mL (≈ 19.9 µM)	32 µg/mL (≈ 51.1 µM)	MIC ([2]; Streptococcus pyogenes, C203): 32 µg/mL (≈ 51.1 µM); MIC [4, 33]: > 128 µg/mL; MIC ([6]; Staphylococcus aureus, X1.1): 32 µg/mL (≈ 51.1 µM); MIC [7, 34]: 16 µg/mL (≈ 25.5 µM); MIC [8, 35]: > 128 µg/mL; MIC [13]: 50 µg/mL (≈ 79.8 µM); MIC [27, 36]: 16 µg/mL (≈ 25.5 µM); MIC [28, 37]: 64 µg/mL (≈ 102 µM); MIC ([29]; Staphylococcus aureus, X400): 64 µg/mL (≈ 102 µM); MIC [30]: 16 µg/mL (≈ 25.5 µM); MIC [31]: 32 µg/mL (≈ 51.1 µM)
CCC1OC(=O)CC(O)C(C)C(OC2OC(C)C(O)C(N(C)C)C2O)C(CCNC)CC(C)C(=O)C=CC(C)=CC1CO (stereo not shown) [Compound 3, 20-N-Methylamino-20-deoxy-20-dihydro-OMT]	64 µg/mL (≈ 104 µM)	> 128 µg/mL	128 µg/mL (≈ 209 µM)	> 128 µg/mL	16 µg/mL (≈ 26.1 µM)	50 µg/mL (≈ 81.6 µM)	50 µg/mL (≈ 81.6 µM)	25 µg/mL (≈ 40.8 µM)	50 µg/mL (≈ 81.6 µM)	50 µg/mL (≈ 81.6 µM)	> 50 µg/mL	50 µg/mL (≈ 81.6 µM)	50 µg/mL (≈ 81.6 µM)	50 µg/mL (≈ 81.6 µM)	50 µg/mL (≈ 81.6 µM)	> 50 µg/mL	50 µg/mL (≈ 81.6 µM)	50 µg/mL (≈ 81.6 µM)	25 µg/mL (≈ 40.8 µM)	128 µg/mL (≈ 209 µM)	MIC [2, 38]: 128 µg/mL (≈ 209 µM); MIC [4, 33]: > 128 µg/mL; MIC [6, 39]: 32 µg/mL (≈ 52.2 µM); MIC ([7]; Klebsiella pneumoniae, X26): 64 µg/mL (≈ 104 µM); MIC [8, 35]: > 128 µg/mL; MIC ([27]; Haemophilus influenzae): 128 µg/mL (≈ 209 µM); MIC [28, 37]: 64 µg/mL (≈ 104 µM); MIC [29, 40]: 128 µg/mL (≈ 209 µM); MIC [30]: 32 µg/mL (≈ 52.2 µM); MIC [31]: 64 µg/mL (≈ 104 µM)
CCC1OC(=O)CC(O)C(C)C(OC2OC(C)C(OC3CC(C)(O)C(O)C(C)O3)C(N(C)C)C2O)C(CCNCCc2ccccc2)CC(C)C(=O)C=CC(C)=CC1CO (stereo not shown) [Compound 16]	32 µg/mL (≈ 37.8 µM)	> 128 µg/mL	> 128 µg/mL	> 128 µg/mL	4 µg/mL (≈ 4.72 µM)	12.5 µg/mL (≈ 14.8 µM)	6.25 µg/mL (≈ 7.38 µM)	6.25 µg/mL (≈ 7.38 µM)	> 50 µg/mL	12.5 µg/mL (≈ 14.8 µM)	> 50 µg/mL	> 50 µg/mL	> 50 µg/mL	50 µg/mL (≈ 59 µM)	> 50 µg/mL	> 50 µg/mL	> 50 µg/mL	> 50 µg/mL	> 50 µg/mL	16 µg/mL (≈ 18.9 µM)	MIC [2, 38]: 8 µg/mL (≈ 9.44 µM); MIC [4]: 32 µg/mL (≈ 37.8 µM); MIC [6, 39]: 16 µg/mL (≈ 18.9 µM); MIC [7, 34]: 128 µg/mL (≈ 151 µM); MIC [8]; 9960: 32 µg/mL (≈ 37.8 µM); MIC [13]: > 50 µg/mL; ED50 ([32]; C203, mice, oral, read-out: ED50 Oral): 88 mg/kg; ED50 ([32]; C203, sc, mice, subcutaneous, read-out: ED50 Subcutaneous): 10.4 mg/kg; MIC [27, 36]: 64 µg/mL (≈ 75.6 µM); MIC ([28]; agar-dilution, Staphylococcus epidermidis EPI2, read-out: MIC): 64 µg/mL (≈ 75.6 µM); MIC [29, 40]: 64 µg/mL (≈ 75.6 µM); MIC [30]: 16 µg/mL (≈ 18.9 µM); MIC [31]: 32 µg/mL (≈ 37.8 µM)
